Reference: EPA's ToxRefDB 2

Tests used:
[1] = test system: mouse; settings: Developmental neurotoxicity study, other, Oral, Gavage/Intubation, dose end: 147 PND, group: cannot be grouped
[2] = test system: rat; settings: Prenatal developmental toxicity study, wistar, Oral, Gavage/Intubation, dose end: 18 GD
[3] = test system: mouse; settings: Prenatal developmental toxicity study, cd1, Injection, Subcutaneous, dose end: 16 GD
[4] = test system: mouse; settings: Prenatal developmental toxicity study; cd1; Oral; Gavage/Intubation; dose end: 16 GD; group: developmental; developmental / developmental landmark / vaginal opening / vaginal opening + systemic / in life observation / body weight / litter weight + …
[5] = test system: mouse; settings: Multigenerational reproductive toxicity study, cd1, Oral, Feed, dose end: 1 generation
[6] = test system: mouse; settings: Multigenerational reproductive toxicity study; cd1; Oral; Feed; dose end: 2 generation; group: reproductive; reproductive / reproductive performance / reproductive performance other / NOS + reproductive / reproductive performance / fertility / …
[7] = test system: rat; settings: Prenatal developmental toxicity study, sprague dawley, Oral, Gavage/Intubation, dose end: 15 GD, group: maternal
[8] = test system: rat; settings: Multigenerational reproductive toxicity study, wistar, Oral, Feed, dose end: 2 generation
[9] = test system: rat; settings: Multigenerational reproductive toxicity study, wistar, Oral, Feed, dose end: 2 generation; remark: listed apart in the source
[10] = test system: rat; settings: Multigenerational reproductive toxicity study, long evans, Oral, Feed, dose end: 2 generation
[11] = test system: dog; settings: Chronic toxicity; beagle; Oral; Capsule; dose end: 52 week; group: systemic; systemic / in life observation / body weight / body weight gain
[12] = test system: rat; settings: Prenatal developmental toxicity study, other, Oral, Gavage/Intubation, dose end: 15 GD
[13] = test system: rat; settings: Subchronic oral toxicity in rodents, other, Gavage/Intubation, dose end: 90 day, group: systemic, systemic / pathology microscopic / stomach / inflammation + systemic / pathology gross / stomach / thickened + systemic / pathology …
[14] = test system: rat; settings: Prenatal developmental toxicity study, other, Oral, Gavage/Intubation, dose end: 15 GD; remark: listed apart in the source
[15] = systemic / clinical chemistry / [other] / [other] + systemic / in life observation / clinical signs / [other] + systemic / in life …
[16] = systemic / in life observation / clinical signs / [other] + systemic / in life observation / clinical signs / aggressive behavior
[17] = group: developmental, systemic / in life observation / body weight / offspring (pup) weight + systemic / organ weight / epididymis / absolute + systemic / organ …
[18] = group: maternal, reproductive / reproductive performance / gestational length / gestational length + systemic / in life observation / body weight / body …
[19] = group: developmental, developmental / developmental malformation / general / [other] + developmental / developmental landmark / nipple development / nipple …
[20] = group: maternal, systemic / in life observation / body weight / body weight gain
[21] = group: offspring, systemic / in life observation / body weight / offspring (pup) weight
[22] = systemic / in life observation / body weight / body weight gain + systemic / in life observation / food consumption / food consumption + …
[23] = group: offspring, systemic / in life observation / body weight / offspring (pup) weight + developmental / offspring survival late / lactation index / …
[24] = group: parental, systemic / in life observation / body weight / body weight + systemic / in life observation / body weight / body weight gain
[25] = group: parental, systemic / in life observation / body weight / body weight + systemic / in life observation / body weight / body weight gain + systemic / …
[26] = group: reproductive, reproductive / offspring survival early / litter size / litter size
[27] = group: offspring, systemic / in life observation / clinical signs / body cold to touch + systemic / in life observation / clinical signs / emaciation + …
[28] = group: offspring, systemic / in life observation / body weight / offspring (pup) weight + developmental / offspring survival late / viability index / …
[29] = group: developmental, developmental / developmental malformation / bone / curled + developmental / developmental malformation / mouth / jaw / cleft palate + …
[30] = group: developmental, developmental / developmental malformation / bone / bent + developmental / developmental malformation / mouth / jaw / cleft palate + …
[31] = group: maternal, systemic / in life observation / body weight / body weight
[32] = group: maternal, systemic / in life observation / body weight / body weight + reproductive / reproductive performance / resorptions / resorptions + systemic…

## CC/C(=C(/CC)c1ccc(O)cc1)c1ccc(O)cc1 [Diethylstilbestrol]
[1]; [15]
  LOAEL: > 0.003 mg/kg/day
  NOAEL: ≥ 0.003 mg/kg/day
[1]; [16]
  LEL: 0.0003 mg/kg/day
  NEL: < 0.0003 mg/kg/day
[2]; [17]
  LEL: 0.03 mg/kg/day
  LOAEL: > 0.03 mg/kg/day
  NEL: < 0.03 mg/kg/day
  NOAEL: ≥ 0.03 mg/kg/day
[2]; [18]
  LEL: 0.03 mg/kg/day
  LOAEL: > 0.03 mg/kg/day
  NEL: < 0.03 mg/kg/day
  NOAEL: ≥ 0.03 mg/kg/day
[3]; [19]
  LEL: 0.1 mg/kg/day
  LOAEL: > 0.1 mg/kg/day
  NEL: 0.05 mg/kg/day
  NOAEL: ≥ 0.1 mg/kg/day
[3]; [20]
  LEL: 0.0025 mg/kg/day
  LOAEL: 0.0025 mg/kg/day
  NEL: < 0.0025 mg/kg/day
  NOAEL: < 0.0025 mg/kg/day
[4]
  LEL: 0.01 mg/kg/day
  LOAEL: > 0.01 mg/kg/day
  NEL: < 0.01 mg/kg/day
  NOAEL: ≥ 0.01 mg/kg/day
[5]; [21]
  NOAEL: ≥ 7.5e-09 mg/kg/day
[5]; group: reproductive, reproductive / reproductive performance / reproductive performance other / NOS + reproductive / reproductive performance / fertility / …
  NOAEL: ≥ 7.5e-09 mg/kg/day
[6]
  NOAEL: ≥ 7.5e-09 mg/kg/day

## Cc1ccc(N(SC(F)(Cl)Cl)S(=O)(=O)N(C)C)cc1 [Tolylfluanid]
[7]; systemic / in life observation / body weight / body weight gain + systemic / in life observation / food consumption / food consumption
  LOAEL: 1000 mg/kg/day
[7]; [22]
  LEL: 1000 mg/kg/day
  NEL: 300 mg/kg/day
  NOAEL: 300 mg/kg/day
[8]; [21]
  LEL: 83.4 mg/kg/day
  LOAEL: 83.4 mg/kg/day
[8]; [23]
  NEL: 20.1 mg/kg/day
  NOAEL: 20.1 mg/kg/day
[8]; [24]
  LEL: 83.4 mg/kg/day
  LOAEL: 83.4 mg/kg/day
[8]; [25]
  NEL: 20.1 mg/kg/day
  NOAEL: 20.1 mg/kg/day
[8]; [26]
  LEL: 336 mg/kg/day
  LOAEL: > 336 mg/kg/day
  NEL: 83.4 mg/kg/day
  NOAEL: ≥ 336 mg/kg/day
[9]; [27]
  LEL: 57.5 mg/kg/day
  LOAEL: 57.5 mg/kg/day
  NEL: 7.9 mg/kg/day
  NOAEL: 7.9 mg/kg/day
[9]; [25]
  LEL: 75.2 mg/kg/day
  LOAEL: 75.2 mg/kg/day
  NEL: 9.5 mg/kg/day
  NOAEL: 9.5 mg/kg/day
[9]; [26]
  LEL: 70.4 mg/kg/day
  LOAEL: 70.4 mg/kg/day
  NEL: 9.1 mg/kg/day
  NOAEL: 9.1 mg/kg/day
[10]; group: offspring, systemic / in life observation / body weight / offspring (pup) weight + developmental / offspring survival late / [other] / [other]
  LOAEL: 375 mg/kg/day
[10]; group: offspring, systemic / in life observation / body weight / offspring (pup) weight + developmental / offspring survival late / [other] / [other] + …
  LEL: 375 mg/kg/day
[10]; [28]
  NEL: 75 mg/kg/day
  NOAEL: 75 mg/kg/day
[10]; [24]
  LEL: 375 mg/kg/day
  LOAEL: 375 mg/kg/day
  NEL: 75 mg/kg/day
  NOAEL: 75 mg/kg/day
[11]
  LEL: 62.5 mg/kg/day
  LOAEL: 62.5 mg/kg/day

## CCC12COCN1COC2 [5-Ethyl-1-aza-3,7-dioxabicyclo[3.3.0]octane]
[12]; [29]
  LEL: 650 mg/kg/day
  LOAEL: 650 mg/kg/day
  NEL: 250 mg/kg/day
  NOAEL: 250 mg/kg/day
[12]; [20]
  LEL: 650 mg/kg/day
  LOAEL: 650 mg/kg/day
  NEL: 250 mg/kg/day
  NOAEL: 250 mg/kg/day
[13]
  LEL: 50 mg/kg/day
  LOAEL: 50 mg/kg/day
[14]; [30]
  LEL: 750 mg/kg/day
  LOAEL: 750 mg/kg/day
  NEL: 500 mg/kg/day
  NOAEL: 500 mg/kg/day
[14]; [31]
  LEL: 500 mg/kg/day
  LOAEL: 500 mg/kg/day
[14]; [32]
  NEL: 250 mg/kg/day
  NOAEL: 250 mg/kg/day
